# Test results: PubChem BioAssay AID248 (DTP/NCI, 2004)
# “And” between values parts separate entries of the source, which are not always exact repeats. Identical values can stand only once. Inconclusive results and toxic doses are left out.
# Test system: L1210 leukemia ip in BDF1 mice, survival T/C
# Experiment: NCI In Vivo Anticancer Drug Screen. Data for tumor model L1210 Leukemia (intraperitoneal) in B6D2F1 (BDF1) mice
# Settings: endpoint: mean survival time, higher = longer survival
# Method in brief: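 Value reflects the ratio of survival in compound-treated mice to survival in vehicle-treated controls, with both groups carrying the same transplanted tumor.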
# [1] = dose: 100.0 mg/kg/injection, schedule: Q04DX003 (ip), vehicle: saline
# [2] = dose: 200.0 mg/kg/injection, schedule: Q04DX003 (ip), vehicle: saline
# [3] = dose: 400.0 mg/kg/injection, schedule: Q04DX003 (ip), vehicle: saline
# [4] = dose: 100.0 mg/kg/injection, schedule: Q01DX009 (ip), vehicle: Klucel (hydroxypropylcellulose) (HPC)
# [5] = dose: 200.0 mg/kg/injection, schedule: Q01DX009 (ip), vehicle: Klucel (hydroxypropylcellulose) (HPC)
# [6] = dose: 400.0 mg/kg/injection, schedule: Q01DX009 (ip), vehicle: Klucel (hydroxypropylcellulose) (HPC)
# [7] = dose: 100.0 mg/kg/injection, schedule: Q01DX009 (ip), vehicle: saline
# [8] = dose: 200.0 mg/kg/injection, schedule: Q01DX009 (ip), vehicle: saline
# [9] = dose: 100.0 mg/kg/injection, schedule: Q04DX003 (ip), vehicle: Klucel (hydroxypropylcellulose) (HPC)
smiles,measurement,setting,value
O=C1CCC2C3CCC(=O)C3C12 (configuration not stated),T/C,"dose: 75.0 mg/kg/injection, schedule: Q01DX001 (ip), vehicle: saline",102 % of control
same,T/C,"dose: 150.0 mg/kg/injection, schedule: Q01DX001 (ip), vehicle: saline",97 % of control
O=S(=O)(O)SCCCNCCCCCCCCNCCCSS(=O)(=O)O,T/C,"dose: 100.0 mg/kg/injection, schedule: Q04DX003 (ip), vehicle: saline with Tween-80",101 % of control
same,T/C,"dose: 200.0 mg/kg/injection, schedule: Q04DX003 (ip), vehicle: saline with Tween-80",92 % of control
same,T/C,"dose: 400.0 mg/kg/injection, schedule: Q04DX003 (ip), vehicle: saline with Tween-80",88 % of control
NCCCCC(N)C(=O)CCl (configuration not stated),T/C,"dose: 25.0 mg/kg/injection, schedule: Q04DX002 (ip), vehicle: saline",110 % of control
same,T/C,"dose: 50.0 mg/kg/injection, schedule: Q04DX002 (ip), vehicle: saline",97 % of control
same,T/C,"dose: 100.0 mg/kg/injection, schedule: Q04DX002 (ip), vehicle: saline",94 % of control
CNC(=O)CCC(=O)NC,T/C,"dose: 75.0 mg/kg/injection, schedule: Q04DX003 (ip), vehicle: saline",95 % of control
same,T/C,[1],100 % of control
same,T/C,"dose: 150.0 mg/kg/injection, schedule: Q04DX003 (ip), vehicle: saline",98 % of control
same,T/C,[2],102 % of control
same,T/C,"dose: 300.0 mg/kg/injection, schedule: Q04DX003 (ip), vehicle: saline",95 % of control
same,T/C,[3],111 % of control
C/C=C/C(=O)Nc1cccc(C)c1C,T/C,[4],93 % of control and 95 % of control
same,T/C,[5],100 % of control
same,T/C,[6],92 % of control
CCCCCCNC(N)=O,T/C,"dose: 50.0 mg/kg/injection, schedule: Q01DX009 (ip), vehicle: saline with Tween-80",93 % of control and 100 % of control
same,T/C,"dose: 100.0 mg/kg/injection, schedule: Q01DX009 (ip), vehicle: saline with Tween-80",100 % of control and 101 % of control
same,T/C,"dose: 200.0 mg/kg/injection, schedule: Q01DX009 (ip), vehicle: saline with Tween-80",100 % of control and 101 % of control
C/C(CC(=O)O)=C(\C)C(=O)O,T/C,"dose: 100.0 mg/kg/injection, schedule: Q01DX009 (ip), vehicle: water",95 % of control
same,T/C,"dose: 100.0 mg/kg/injection, schedule: Q04DX003 (ip), vehicle: water",96 % of control
same,T/C,"dose: 200.0 mg/kg/injection, schedule: Q01DX009 (ip), vehicle: water",91 % of control
same,T/C,"dose: 200.0 mg/kg/injection, schedule: Q04DX003 (ip), vehicle: water",102 % of control
same,T/C,"dose: 400.0 mg/kg/injection, schedule: Q04DX003 (ip), vehicle: water",104 % of control
CC1CCC2(C(=O)O)CCC3(C)C(=CCC4C5(C)CC(O)C(O)C(C)(C(=O)O)C5CCC43C)C2C1(C)O (configuration not stated),T/C,"dose: 100.0 mg/kg/injection, schedule: Q01DX001 (ip), vehicle: alkali diluted with saline",94 % of control
same,T/C,"dose: 100.0 mg/kg/injection, schedule: Q01DX001 (ip), vehicle: saline with Tween-80",97 % of control
same,T/C,"dose: 200.0 mg/kg/injection, schedule: Q01DX001 (ip), vehicle: alkali diluted with saline",100 % of control
same,T/C,"dose: 200.0 mg/kg/injection, schedule: Q01DX001 (ip), vehicle: saline with Tween-80",89 % of control
Cc1cc(OC(=O)Nc2cccc([N+](=O)[O-])c2)cc(C)c1Cl,T/C,[4],100 % of control
same,T/C,[5],90 % of control
same,T/C,[6],93 % of control
Cc1c[nH]c(=O)cn1,T/C,[7],97 % of control
same,T/C,[1],94 % of control
same,T/C,[8],90 % of control
same,T/C,[2],104 % of control
same,T/C,"dose: 400.0 mg/kg/injection, schedule: Q01DX009 (ip), vehicle: saline",93 % of control
same,T/C,[3],104 % of control
CC(C)C(C)/C=C/C(C)C1CCC2C3=C(C=CC21C)C1(C)CCCCC1=CC3C1C=C2CCCCC2(C)C2=C1C1CCC(C(C)/C=C/C(C)C(C)C)C1(C)C=C2 (configuration not stated),T/C,[9],90 % of control
same,T/C,"dose: 200.0 mg/kg/injection, schedule: Q04DX003 (ip), vehicle: Klucel (hydroxypropylcellulose) (HPC)",100 % of control
same,T/C,"dose: 400.0 mg/kg/injection, schedule: Q04DX003 (ip), vehicle: Klucel (hydroxypropylcellulose) (HPC)",90 % of control
COc1cc(/C=N/NC(=O)C(=O)N/N=C/c2cc(OC)c(OC)c(OC)c2)cc(OC)c1OC,T/C,"dose: 75.0 mg/kg/injection, schedule: Q01DX001 (ip), vehicle: other",94 % of control
same,T/C,"dose: 150.0 mg/kg/injection, schedule: Q01DX001 (ip), vehicle: other",90 % of control
same,T/C,"dose: 300.0 mg/kg/injection, schedule: Q01DX001 (ip), vehicle: other",89 % of control
Nc1ccc(CCCNc2c(N)nc(N)nc2-c2ccccc2)cc1,T/C,"dose: 50.0 mg/kg/injection, schedule: Q01DX001 (ip), vehicle: saline",100 % of control
same,T/C,"dose: 100.0 mg/kg/injection, schedule: Q01DX001 (ip), vehicle: saline",103 % of control
same,T/C,"dose: 200.0 mg/kg/injection, schedule: Q01DX001 (ip), vehicle: saline",94 % of control
O=C(Nc1cccc(C2=NCCN2)c1)c1ccc(C(=O)Nc2cccc(C3=NCCN3)c2)cc1,T/C,"dose: 2.5 mg/kg/injection, schedule: Q01DX Z (ip), vehicle: saline",95 % of control
same,T/C,"dose: 5.0 mg/kg/injection, schedule: Q01DX Z (ip), vehicle: saline",111 % of control
Cc1ccc(NC(=O)N(CCCl)N=O)cc1,T/C,"dose: 0.5 mg/kg/injection, schedule: Q01DX015 (ip), vehicle: carboxymethylcellulose (CMC)",103 % of control
same,T/C,"dose: 1.0 mg/kg/injection, schedule: Q01DX015 (ip), vehicle: carboxymethylcellulose (CMC)",107 % of control
same,T/C,"dose: 5.2 mg/kg/injection, schedule: Q01DX015 (ip), vehicle: carboxymethylcellulose (CMC)",169 % of control
same,T/C,"dose: 9.0 mg/kg/injection, schedule: Q01DX015 (ip), vehicle: carboxymethylcellulose (CMC)",165 % of control
same,T/C,"dose: 15.0 mg/kg/injection, schedule: Q01DX015 (ip), vehicle: carboxymethylcellulose (CMC)",206 % of control
same,T/C,"dose: 22.0 mg/kg/injection, schedule: Q01DX001 (ip), vehicle: carboxymethylcellulose (CMC)",161 % of control
same,T/C,"dose: 25.0 mg/kg/injection, schedule: Q01DX015 (ip), vehicle: carboxymethylcellulose (CMC)",152 % of control
same,T/C,"dose: 33.0 mg/kg/injection, schedule: Q01DX001 (ip), vehicle: carboxymethylcellulose (CMC)",152 % of control
same,T/C,"dose: 50.0 mg/kg/injection, schedule: Q01DX001 (ip), vehicle: carboxymethylcellulose (CMC)",171 % of control and 197 % of control
same,T/C,"dose: 75.0 mg/kg/injection, schedule: Q01DX001 (ip), vehicle: carboxymethylcellulose (CMC)",118 % of control
same,T/C,"dose: 100.0 mg/kg/injection, schedule: Q01DX001 (ip), vehicle: carboxymethylcellulose (CMC)",86 % of control
O=Cc1c[nH]c(=O)[nH]c1=O,T/C,"dose: 50.0 mg/kg/injection, schedule: Q01DX009 (ip), vehicle: saline",109 % of control
same,T/C,"dose: 100.0 mg/kg/injection, schedule: Q01DX001 (ip), vehicle: Klucel (hydroxypropylcellulose) (HPC)",94 % of control
same,T/C,[7],103 % of control
same,T/C,[1],95 % of control
same,T/C,"dose: 200.0 mg/kg/injection, schedule: Q01DX001 (ip), vehicle: Klucel (hydroxypropylcellulose) (HPC)",105 % of control
same,T/C,[8],106 % of control
same,T/C,[2],103 % of control
same,T/C,"dose: 400.0 mg/kg/injection, schedule: Q01DX001 (ip), vehicle: Klucel (hydroxypropylcellulose) (HPC)",101 % of control
same,T/C,[3],95 % of control
OCc1ccc(-c2ccccc2)cc1,T/C,"dose: 25.0 mg/kg/injection, schedule: Q04DX003 (ip), vehicle: Klucel (hydroxypropylcellulose) (HPC)",108 % of control
same,T/C,"dose: 50.0 mg/kg/injection, schedule: Q01DX005 (ip), vehicle: saline",94 % of control
same,T/C,"dose: 50.0 mg/kg/injection, schedule: Q04DX003 (ip), vehicle: Klucel (hydroxypropylcellulose) (HPC)",103 % of control
same,T/C,"dose: 100.0 mg/kg/injection, schedule: Q01DX005 (ip), vehicle: saline",112 % of control
same,T/C,[9],103 % of control
same,T/C,"dose: 200.0 mg/kg/injection, schedule: Q01DX005 (ip), vehicle: saline",100 % of control
same,T/C,"dose: 400.0 mg/kg/injection, schedule: Q01DX005 (ip), vehicle: saline",102 % of control
C=C(C)C1Cc2c(ccc3c2OC2COc4cc(OC)c(OC)cc4C2(O)C3=O)O1 (configuration not stated),T/C,"dose: 12.5 mg/kg/injection, schedule: Q01DX009 (ip), vehicle: carboxymethylcellulose (CMC)",107 % of control
